The values that follow come from patent US8785499B2 (priority 2009, dated 2014).

≈ marks a conversion by molar mass, not a printed value. A value given as a limit tells only on which side of the number the result lay.

The target of test [1] is baNadD (Bacillus anthracis, UniProt C3L5T6). Put plainly: biochemical. Format: biochemical. Particulars: for inhibition at 50 µM: read-out: INHIBITION (%) B. anthracis.
Test [2] relates to E. coli K-12 BW25113 (ΔnadA). Briefly: microbe, parasite or virus in culture. Format: cell-based, Escherichia coli. As to conditions: for MIC50: Escherichia coli, BW25113, read-out: MIC50 E. coli.
Test [3] relates to B. subtilis 168. Put plainly: microbe, parasite or virus in culture. Format: cell-based. As to conditions: Bacillus subtilis, 168, read-out: MIC50 B. subt.
Test [4] concerns B. anthracis sterne. Briefly: microbe, parasite or virus in culture. Particulars: Bacillus anthracis, read-out: MIC50 B. anth. It counts as cell-based.
In test [5] the test system is E. coli ΔnadA, nadD+ (overexpressing NadD). Briefly: Antibacterial assay: on-target versus off-target activity (NadD overexpression vs gapA control). Format: cell-based, Escherichia coli. Particulars: E. coli overexpressing nadD vs gapA control strain.
Test [6] deals with T1, ecNadD (Escherichia coli (strain K12), UniProt P0A752). Put plainly: biochemical. Particulars: apparent value.
Test [7] addresses T1, ecNadD. Put plainly: biochemical. It counts as biochemical.

For orientation: inhibition means the share of the control response that was lost under treatment.

Chain of baNadD (C3L5T6 whole entry, looked up): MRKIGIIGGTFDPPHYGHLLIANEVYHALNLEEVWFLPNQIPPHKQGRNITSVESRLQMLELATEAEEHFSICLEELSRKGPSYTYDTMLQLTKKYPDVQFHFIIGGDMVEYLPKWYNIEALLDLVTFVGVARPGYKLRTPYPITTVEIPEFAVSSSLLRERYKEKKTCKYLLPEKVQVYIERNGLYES

Take `Nc1c(C(=O)Nc2cccc(Cl)c2)sc2nc(-c3ccncc3)ccc12` [03_17]: in test [1], the inhibition at 50 µM came out at 64%. In addition, the MIC50 in test [2] is 80 µM (≈ 30.5 µg/mL); in test [3] it was greater than 160 µM; in test [4] it was greater than 160 µM.
On to `O=C(CCCC(=O)Nc1ccc(Br)cc1)N/N=C/c1c2ccccc2cc2ccccc12` [01_03], for which the MIC50 is greater than 80 µM in test [2], 10 µM (≈ 4.88 µg/mL) in test [3] and 15 µM (≈ 7.33 µg/mL) in test [4]. In addition, the “effect of NadD overexpression on antibacterial activity (on-target vs off-target)” value in test [5] is recorded as “partially or totally suppresses action”.
`Nc1c(C(=O)Nc2ccc(F)cc2Cl)sc2nc(-c3ccc(F)cc3)ccc12` [03_23]: the “antibacterial activity against E. coli (qualitative)” value in test [2] was “relatively strong antibacterial activity”. Further, the figures for the MIC50 in test [2], in test [3] and in test [4] were 40 µM (≈ 16.6 µg/mL), 80 µM (≈ 33.3 µg/mL) and 80 µM (≈ 33.3 µg/mL), respectively.
`Nc1c(C(=O)Nc2ccc(Cl)cc2F)sc2nc(-c3cccs3)ccc12` [03_15]: the MIC50 turned out to be 160 µM (≈ 64.6 µg/mL) in test [2], 10 µM (≈ 4.04 µg/mL) in test [3] and 10 µM (≈ 4.04 µg/mL) in test [4]. Moreover, the “effect of NadD overexpression on antibacterial activity (on-target vs off-target)” value in test [5] was “partially or totally suppresses action”.
Turning to `Nc1c(C(=O)Nc2cccc(F)c2)sc2nc(-c3cccs3)ccc12` [03_02], the inhibition at 50 µM in test [1] was 100%. Moreover, the MIC50 in test [2] is 160 µM (≈ 59.1 µg/mL); in test [3], 40 µM (≈ 14.8 µg/mL); in test [4] it was 80 µM (≈ 29.6 µg/mL).
`COC(=O)c1ccc(N/C=C2\C(=O)Nc3ccccc32)cc1` [15_11]: the MIC50 was less than 100 µM in test [2] and less than 50 µM in test [3].
In the case of `Nc1c(C(=O)Nc2cc(Cl)ccc2Cl)sc2nc(-c3cccs3)ccc12` [03_05], the figures for the MIC50 in test [2], in test [3] and in test [4] were 80 µM (≈ 33.6 µg/mL), 10 µM (≈ 4.2 µg/mL) and 10 µM (≈ 4.2 µg/mL), respectively.
In the case of `O=C(CCC(=O)Nc1cccc(Cl)c1)N/N=C/c1c2ccccc2cc2ccccc12` [01_02], the MIC50 in test [2] was greater than 80 µM. Further, the Ki was 5 ± 1 µM in test [6] (substrate ATP varied, 0.5 mM NaMN fixed) and 8 ± 3 µM in test [6] (substrate NaMN varied, 0.5 mM ATP fixed).
On to `O=c1cc(O)c2sc(Nc3cccc(Cl)c3)nc2[nH]1` [compound 047], for which the “[…]. coli” value in test [7] is given as 17%. For the same compound, the “[…]. anthracis” value in test [1] is 0%.
Turning to `Cc1ccccc1N1CC(C(=O)O)CC1=O` (stereo not drawn) [compound 184], the “[…]. coli” value in test [7] stood at 2%. Moreover, the “[…]. anthracis” value in test [1] came out at 16%.
For `O=C(O)CCC(C(=O)O)N1C(=O)c2cc(Cl)c(Cl)cc2C1=O` (stereo not drawn) [compound 029], the “[…]. coli” value in test [7] was 22%. Also, the “[…]. anthracis” value in test [1] is given as 0%.
As to `NS(=O)(=O)c1ccc(NC(=O)CSc2ncn(-c3ccccc3)n2)cc1` [compound 205], in test [7], the “[…]. coli” value is 0%. Moreover, the “[…]. anthracis” value in test [1] is reported as 40%.
